According to patent US20060142337A1, “Piperidine derivative and use thereof” (priority 2004, published 2006):
pIC50: −log10 of the molar value. Structures can show the parent of a compound that is named as a salt.

target: T1, substance P receptor (Homo sapiens, UniProt P25103); test: Radioligand receptor binding inhibitory activity using receptor from human lymphoblast cells (IM-9); conditions: [125I]-BHSP binding, receptor from IM-9 cells, 25 C, 30 min
T1 construct: endogenous in cells; host or cells: IM-9 human lymphoblast cells (membrane preparation)
T1 sequence (P25103 whole entry): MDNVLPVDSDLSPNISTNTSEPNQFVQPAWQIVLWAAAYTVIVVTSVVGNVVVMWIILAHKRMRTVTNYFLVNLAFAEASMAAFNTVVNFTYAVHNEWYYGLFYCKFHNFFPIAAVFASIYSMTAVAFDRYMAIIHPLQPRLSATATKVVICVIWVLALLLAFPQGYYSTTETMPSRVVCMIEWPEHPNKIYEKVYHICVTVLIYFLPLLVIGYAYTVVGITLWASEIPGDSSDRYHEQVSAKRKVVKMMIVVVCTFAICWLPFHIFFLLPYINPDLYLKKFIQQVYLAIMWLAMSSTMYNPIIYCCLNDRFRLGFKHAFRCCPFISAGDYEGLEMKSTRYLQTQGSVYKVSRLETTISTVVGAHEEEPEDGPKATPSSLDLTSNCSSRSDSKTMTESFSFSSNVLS
Method: Radioligand receptor binding inhibitory activity (Binding inhibitory activity using receptor from human lymphoblast cells (IM-9))
The method of M. A. Cascieri et al., “Molecular Pharmacology 42, p. 458 (1992)” was modified and used. The receptor was. prepared from human lymphoblast cells (IM-9). IM-9 cells (2×10^5 cells/mL) were incubated for 3 days (one liter), which was then subjected to centrifuge for 5 min. at 500×G to obtain cell pellets. The obtained pellets were washed once with phosphate buffer (Flow Laboratories, CAT. No. 28-103-05), which were then homogenized using Polytron homogenizer (“Kinematika”, Germany) in 30 mL of 50 mM Tris-HCl buffer (pH 7.4) containing 120 mM sodium chloride, 5 mM potassium chloride, 2 μg/mL chymostatin, 40 μg/mL bacitracin, 5 μg/mL phosphoramidon, 0.5 mM phenylmethylsulfonyl fluoride, 1 mM ethylenediamine tetra-acetate, which was subjected to centrifuge at 40,000×G for 20 min. The residue was washed twice with 30 mL of the buffer, which was then preserved frozen (−80° C.) as a specimen of the receptor.
The specimen was suspended in a reaction buffer (50 mM Tris-HCl buffer (pH 7.4), 0.02% bovine serum albumin, 1 mM phenylmethylsulfonyl fluoride, 2 μg/mL chymostatin, 40 μg/mL bacitracin and 3 mM manganese chloride) to have protein in the concentration of 0.5 mg/mL of protein and 100 μL portion of the suspension was used in the reaction. After addition of the sample and ^125]-BHSP (0.46 KBq), the reaction was allowed to proceed in 0.2 mL of reaction buffer at […] for 30 min. The amount of nonspecific binding was determined by adding substance P at a final concentration of 2×10^−6 M.
After the reaction, using a cell harvester (290 PHD, Cambridge Technology, Inc, U.S.A.), filtration was carried out through a glass filter (GF/B, Whatman, U.S.A.), which was immersed in 0.1% polyethyleneimine for 24 hrs. and dried. After washing three times with 250 μL of 50 mM Tris-HCl buffer (pH 7.4) containing 0.02% bovine serum albumin, the radioactivity remaining on the filter was. determined with a gamma counter.
The antagonistic activity of each compound obtained in Examples was determined in terms of the concentration necessary to cause 50% inhibition (IC50 value) under the above-described conditions, and the results were shown in Table 14.
The radio ligand means substance P labeled with [^125I].

SMILES	pIC50
COc1ccc(-n2nnnc2C(F)(F)F)cc1C(C)N[C@H]1CCN(C(=O)C2CCN(C(C)=O)CC2)C[C@H]1c1ccccc1 (single isomer, unassigned) [Example 83]	10.24
COc1ccc(-n2nnnc2C(F)(F)F)cc1C(C)N[C@H]1CCN(C(=O)CNC(C)=O)C[C@H]1c1ccccc1 (single isomer, unassigned) [Example 85]	10.05
C[C@@H](O[C@H]1CCN(C(=O)[C@H]2CC[C@H](NC(=O)C3CC3)CC2)C[C@H]1c1ccccc1)c1cc(C(F)(F)F)cc(C(F)(F)F)c1 [Example 46, N-[trans-4-[[(3R,4S)-4-[(1R)-1-[3,5-Bis(trifluoromethyl)phenyl]ethoxy]-3-phenylpiperidin-1-yl]carbonyl]cyclohexyl]cyclopropanecarboxamide]	10.21
C[C@@H](O[C@H]1CCN(C(=O)[C@H]2CC[C@H](NS(C)(=O)=O)CC2)C[C@H]1c1ccccc1)c1cc(C(F)(F)F)cc(C(F)(F)F)c1 [Example 49, N-[trans-4-[[(3R,4S)-4-[(1R)-1-[3,5-Bis(trifluoromethyl)phenyl]ethoxy]-3-phenylpiperidin-1-yl]carbonyl]cyclohexyl]methanesulfonamide]	10.26
C[C@@H](O[C@H]1CCN(C(=O)[C@H]2CC[C@H](NC(=O)c3cccs3)CC2)C[C@H]1c1ccccc1)c1cc(C(F)(F)F)cc(C(F)(F)F)c1 [Example 51, N-[trans-4-[[(3R,4S)-4-[(1R)-1-[3,5-Bis(trifluoromethyl)phenyl]ethoxy]-3-phenylpiperidin-1-yl]carbonyl]cyclohexyl]thiophene-2-carboxamide]	10.11
CC(=O)N[C@H]1CC[C@@H](C(=O)N2CC[C@H](O[C@H](C)c3cc(C(F)(F)F)cc(C(F)(F)F)c3)[C@H](c3ccccc3)C2)CC1 [Example 54, N-[cis-4-[[(3R,4S)-4-[(1R)-1-[3,5-Bis(trifluoromethyl)phenyl]ethoxy]-3-phenylpiperidin-1-yl]carbonyl]cyclohexyl]acetamide]	10.12
C[C@@H](O[C@H]1CCN(C(=O)[C@H]2CC[C@H](NC(=O)CN3CCCCC3=O)CC2)C[C@H]1c1ccccc1)c1cc(C(F)(F)F)cc(C(F)(F)F)c1 [Example 57, N-[trans-4-[[(3R,4S)-4-[(1R)-1-[3,5-Bis(trifluoromethyl)phenyl]ethoxy]-3-phenylpiperidin-1-yl]carbonyl]cyclohexyl]-2-(2-oxopiperidin-1-yl)acetamide]	10.24
C[C@@H](O[C@H]1CCN(C(=O)[C@H]2CC[C@H](NC(=O)CCCCCl)CC2)C[C@H]1c1ccccc1)c1cc(C(F)(F)F)cc(C(F)(F)F)c1 [Example 59, N-[trans-4-[[(3R,4S)-4-[(1R)-1-[3,5-Bis(trifluoromethyl)phenyl]ethoxy]-3-phenylpiperidin-1-yl]carbonyl]cyclohexyl]-5-chloropentanamide]	10.06
COC(=O)N[C@H]1CC[C@H](C(=O)N2CC[C@H](O[C@H](C)c3cc(C(F)(F)F)cc(C(F)(F)F)c3)[C@H](c3ccccc3)C2)CC1 [Example 61, Methyl trans-4-[[(3R,4S)-4-[(1R)-1-[3,5-bis(trifluoromethyl)phenyl]ethoxy]-3-phenylpiperidin-1-yl]carbonyl]cyclohexylcarbamate]	10.01
CCNC(=O)N[C@H]1CC[C@H](C(=O)N2CC[C@H](O[C@H](C)c3cc(C(F)(F)F)cc(C(F)(F)F)c3)[C@H](c3ccccc3)C2)CC1 [Example 63, N-[trans-4-[[(3R,4S)-4-[(1R)-1-[3,5-Bis(trifluoromethyl)phenyl]ethoxy]-3-phenylpiperidin-1-yl]carbonyl]cyclohexyl]-N′-ethylurea]	10.12

Now those with a higher pIC50, led by results:

pIC50	SMILES
10.46	C[C@@H](O[C@H]1CCN(C(=O)C2CCN(C3CCOC3=O)CC2)C[C@H]1c1ccccc1)c1cc(C(F)(F)F)cc(C(F)(F)F)c1 (single isomer, unassigned) [Example 34, hydrochloride]
10.37	C[C@@H](O[C@H]1CCN(C(=O)C2CCN(C3CCOC3=O)CC2)C[C@H]1c1ccccc1)c1cc(C(F)(F)F)cc(C(F)(F)F)c1 (single isomer, unassigned) [Example 35, hydrochloride]
10.59	CC(=O)N1CCC(C(=O)N2CC[C@H](O[C@H](C)c3cc(C(F)(F)F)cc(C(F)(F)F)c3)[C@H](c3ccccc3)C2)CC1 [Example 36, (3R,4S)-1-[(1-Acetylpiperidin-4-yl)carbonyl]-4-[(1R)-1-[3,5-bis(trifluoromethyl)phenyl]ethoxy]-3-phenylpiperidine]
10.60	CC(=O)NCC(=O)N1CCC(C(=O)N2CC[C@H](O[C@H](C)c3cc(C(F)(F)F)cc(C(F)(F)F)c3)[C@H](c3ccccc3)C2)CC1 [Example 38, N-[2-[4-[[(3R,4S)-4-[(1R)-1-[3,5-Bis(trifluoromethyl)phenyl]ethoxy]-3-phenylpiperidin-1-yl]carbonyl]piperidin-1-yl]-2-oxoethyl]acetamide]
10.49	C[C@@H](O[C@H]1CCN(C(=O)C2CCN(C(=O)Cn3cnnn3)CC2)C[C@H]1c1ccccc1)c1cc(C(F)(F)F)cc(C(F)(F)F)c1 [Example 39, (3R,4S)-4-[(1R)-1-[3,5-Bis(trifluoromethyl)phenyl]ethoxy]-3-phenyl-1-[[1-(1H-tetrazol-1-ylacetyl)piperidin-4-yl]carbonyl]piperidine]
10.42	C[C@@H](O[C@H]1CCN(C(=O)C2CCN(C(=O)N3CCNC3=O)CC2)C[C@H]1c1ccccc1)c1cc(C(F)(F)F)cc(C(F)(F)F)c1 [Example 40, 1-[[4-[[(3R,4S)-4-[(1R)-1-[3,5-Bis(trifluoromethyl)phenyl]ethoxy]-3-phenylpiperidin-1-yl]carbonyl]piperidin-1-yl]carbonyl]imidazolidin-2-one]
10.64	CC(=O)N[C@H]1CC[C@H](C(=O)N2CC[C@H](O[C@H](C)c3cc(C(F)(F)F)cc(C(F)(F)F)c3)[C@H](c3ccccc3)C2)CC1 [Example 42, N-[trans-4-[[(3R,4S)-4-[(1R)-1-[3,5-Bis(trifluoromethyl)phenyl]ethoxy]-3-phenylpiperidin-1-yl]carbonyl]cyclohexyl]acetamide]
10.28	CCCC(=O)N[C@H]1CC[C@H](C(=O)N2CC[C@H](O[C@H](C)c3cc(C(F)(F)F)cc(C(F)(F)F)c3)[C@H](c3ccccc3)C2)CC1 [Example 44, N-[trans-4-[[(3R,4S)-4-[(1R)-1-[3,5-Bis(trifluoromethyl)phenyl]ethoxy]-3-phenylpiperidin-1-yl]carbonyl]cyclohexyl]butanamide]
10.30	CC(C)C(=O)N[C@H]1CC[C@H](C(=O)N2CC[C@H](O[C@H](C)c3cc(C(F)(F)F)cc(C(F)(F)F)c3)[C@H](c3ccccc3)C2)CC1 [Example 45, N-[trans-4-[[(3R,4S)-4-[(1R)-1-[3,5-Bis(trifluoromethyl)phenyl]ethoxy]-3-phenylpiperidin-1-yl]carbonyl]cyclohexyl]-2-methylpropanamide]
10.44	CNC(=O)N[C@H]1CC[C@H](C(=O)N2CC[C@H](O[C@H](C)c3cc(C(F)(F)F)cc(C(F)(F)F)c3)[C@H](c3ccccc3)C2)CC1 [Example 47, N-[trans-4-[[(3R,4S)-4-[(1R)-1-[3,5-Bis(trifluoromethyl)phenyl]ethoxy]-3-phenylpiperidin-1-yl]carbonyl]cyclohexyl]-N′-methylurea]
